Reference: PubChem BioAssay (NCI)
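In this assay, cells in 96-well plates receive the compound at five concentrations for 48 hours. Endpoints are linearly interpolated between the surrounding concentrations. GI50 is the concentration that inhibits growth by half. The concentration for full growth arrest is given as TGI.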

What was measured:
Assay in all cases: growth of human tumour cells (NCI), 48 h
[1] = tested on: HCT-15 colon
[2] = tested on: U251 CNS
[3] = tested on: UACC-257 melanoma
[4] = tested on: BT-549 breast
[5] = tested on: ACHN renal
[6] = tested on: MDA-MB-231 breast
[7] = tested on: NCI-H226 lung
[8] = tested on: KM12 colon
[9] = tested on: NCI-H460 lung
[10] = tested on: CAKI-1 renal
[11] = tested on: A549 NSCLC
[12] = tested on: HOP-62 NSCLC
[13] = tested on: K-562 leukemia
[14] = tested on: OVCAR-5 ovarian
[15] = tested on: UACC-62 melanoma
[16] = tested on: RXF 393 renal
[17] = tested on: SK-MEL-5 melanoma
[18] = tested on: SR leukemia
[19] = tested on: SNB-75 CNS
[20] = tested on: M14 melanoma
[21] = tested on: NCI/ADR-RES ovarian
[22] = tested on: MOLT-4 leukemia
[23] = tested on: COLO 205 colon
[24] = tested on: SW-620 colon
[25] = tested on: MDA-MB-435
[26] = tested on: 786-0 renal
[27] = tested on: SN12C renal
[28] = tested on: HCC-2998 colon
[29] = tested on: T-47D breast
[30] = tested on: NCI-H23 lung
[31] = tested on: TK-10 renal
[32] = tested on: SF-295 CNS
[33] = tested on: SK-OV-3 ovarian
[34] = tested on: OVCAR-4 ovarian
[35] = tested on: OVCAR-3 ovarian
[36] = tested on: IGROV1 ovarian
[37] = tested on: OVCAR-8 ovarian
[38] = tested on: HOP-92 NSCLC
[39] = tested on: HCT-116 colon
[40] = tested on: SF-539 CNS
[41] = tested on: SK-MEL-28 melanoma
[42] = tested on: SK-MEL-2 melanoma
[43] = tested on: MALME-3M melanoma
[44] = tested on: PC-3 prostate
[45] = tested on: MCF7 breast
[46] = tested on: SNB-19 CNS
[47] = tested on: RPMI-8226 leukemia
[48] = tested on: UO-31 renal
[49] = tested on: NCI-H522 lung
[50] = tested on: CCRF-CEM leukemia
[51] = tested on: DU-145 prostate
[52] = tested on: EKVX NSCLC
[53] = tested on: HS 578T breast
[54] = tested on: LOX IMVI melanoma
[55] = tested on: HL-60(TB) leukemia
[56] = tested on: SF-268 CNS

CN(C)c1cc[n+](/C(NS(=O)(=O)c2cc(C(=O)Nc3ccc(Cl)cc3)c(Cl)cc2[S-])=C(\C#N)C(=O)c2ccccc2)cc1 was tested, and the GI50 [1] was 17.4 µM, the TGI [1] was 65.1 µM and the GI50 [2] was 61 µM. The TGI [2] was > 100 µM, the GI50 [3] was 90.2 µM and the TGI [3] was > 100 µM. It also gave a GI50 [4] of 25.4 µM, a TGI [4] of 82.8 µM and a GI50 [5] of 50 µM. For the same compound, the TGI [5] was > 100 µM, the GI50 [6] was 16.7 µM and the TGI [6] was 48.5 µM. For the same compound, the GI50 [7] was 21.6 µM, the TGI [7] was 49.3 µM and the GI50 [8] was 40.6 µM. For the same compound, the TGI [8] was > 100 µM, the GI50 [9] was 14.4 µM and the TGI [9] was 49.4 µM. For the same compound, the GI50 [10] was 18.7 µM, the TGI [10] was 43 µM and the GI50 [11] was 41.5 µM. The TGI [11] was > 100 µM, the GI50 [12] was 69.5 µM and the TGI [12] was > 100 µM. The GI50 [13] was 89.4 µM, the TGI [13] was > 100 µM and the GI50 [14] was 22.7 µM. For the same compound, the TGI [14] was 53 µM, the GI50 [15] was 29.3 µM and the TGI [15] was 98.6 µM. The GI50 [16] was 55.4 µM, the TGI [16] was > 100 µM and the GI50 [17] was 21.3 µM. The TGI [17] was 81.8 µM, the GI50 [18] was > 100 µM and the TGI [18] was > 100 µM. The GI50 [19] was 31.1 µM, the TGI [19] was > 100 µM and the GI50 [20] was 35.6 µM. For the same compound, the TGI [20] was > 100 µM, the GI50 [21] was > 100 µM and the TGI [21] was > 100 µM. For the same compound, the GI50 [22] was 26.8 µM, the TGI [22] was > 100 µM and the GI50 [23] was 30 µM. The TGI [23] was > 100 µM, the GI50 [24] was 32 µM and the TGI [24] was > 100 µM. The GI50 [25] was 36.5 µM, the TGI [25] was > 100 µM and the GI50 [26] was > 100 µM. For the same compound, the TGI [26] was > 100 µM, the GI50 [27] was 79.8 µM and the TGI [27] was > 100 µM. It also gave a GI50 [28] of 20.3 µM, a TGI [28] of 57.2 µM and a GI50 [29] of 9.64 µM. For the same compound, the TGI [29] was 77.7 µM, the GI50 [30] was 41.2 µM and the TGI [30] was > 100 µM. For the same compound, the GI50 [31] was 29.1 µM, the TGI [31] was > 100 µM and the GI50 [32] was 27.1 µM. It also gave a TGI [32] of 68.7 µM, a GI50 [33] of 36.5 µM and a TGI [33] of 99.3 µM. It also gave a GI50 [34] of 18 µM, a TGI [34] of 38.8 µM and a GI50 [35] of 26.6 µM. For the same compound, the TGI [35] was 98.6 µM, the GI50 [36] was 84.7 µM and the TGI [36] was > 100 µM. The GI50 [37] was 39.1 µM, the TGI [37] was > 100 µM and the GI50 [38] was 13.9 µM. For the same compound, the TGI [38] was 36.3 µM, the GI50 [39] was 14.9 µM and the TGI [39] was 34.3 µM. It also gave a GI50 [40] of 11.9 µM, a TGI [40] of 24.8 µM and a GI50 [41] of 30.8 µM. The TGI [41] was > 100 µM, the GI50 [42] was 85 µM and the TGI [42] was > 100 µM. For the same compound, the GI50 [43] was 31.7 µM, the TGI [43] was > 100 µM and the GI50 [44] was 24.9 µM. For the same compound, the TGI [44] was 75.5 µM, the GI50 [45] was 25.1 µM and the TGI [45] was > 100 µM. For the same compound, the GI50 [46] was 37.7 µM, the TGI [46] was > 100 µM and the GI50 [47] was 40.9 µM. For the same compound, the TGI [47] was > 100 µM, the GI50 [48] was 23.8 µM and the TGI [48] was 54.7 µM. The GI50 [49] was 23.7 µM, the TGI [49] was 58.5 µM and the GI50 [50] was 33.1 µM. The TGI [50] was > 100 µM, the GI50 [51] was 17.2 µM and the TGI [51] was 82.6 µM. It also gave a GI50 [52] of 29.3 µM, a TGI [52] of 95.9 µM and a GI50 [53] of 26.1 µM. For the same compound, the TGI [53] was 67 µM, the GI50 [54] was 49.7 µM and the TGI [54] was > 100 µM. For the same compound, the GI50 [55] was > 100 µM, the TGI [55] was > 100 µM and the GI50 [56] was 40.6 µM. For the same compound, the TGI [56] was > 100 µM.
